Data on 32 molecules can be found in ChEMBL document CHEMBL1134197, “A series of quinoline analogues as potent inhibitors of C. albicans prolyl tRNA synthetase” (Bioorg Med Chem Lett, 2001).

Converted amounts (≈) assume the structure as drawn. Bounds are passed on as bounds.

Test [1] deals with T1, Proline--tRNA ligase, cytoplasmic (Candida albicans, UniProt P78600).
T1 sequence (P78600 whole entry): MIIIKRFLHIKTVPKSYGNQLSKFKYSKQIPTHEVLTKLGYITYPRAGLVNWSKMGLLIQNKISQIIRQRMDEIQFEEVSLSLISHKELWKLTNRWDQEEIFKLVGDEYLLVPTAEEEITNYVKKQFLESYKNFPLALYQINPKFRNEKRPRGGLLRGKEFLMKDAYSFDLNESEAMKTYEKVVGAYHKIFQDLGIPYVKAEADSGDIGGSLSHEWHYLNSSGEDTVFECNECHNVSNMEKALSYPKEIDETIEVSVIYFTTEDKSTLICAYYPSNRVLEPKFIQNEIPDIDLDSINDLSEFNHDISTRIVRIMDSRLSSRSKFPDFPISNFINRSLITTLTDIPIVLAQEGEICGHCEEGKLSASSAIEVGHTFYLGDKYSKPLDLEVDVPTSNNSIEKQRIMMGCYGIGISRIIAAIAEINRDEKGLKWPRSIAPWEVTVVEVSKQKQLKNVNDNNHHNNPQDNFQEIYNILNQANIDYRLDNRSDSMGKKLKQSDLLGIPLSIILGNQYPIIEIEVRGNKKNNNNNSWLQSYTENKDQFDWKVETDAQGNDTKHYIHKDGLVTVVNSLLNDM
In words: Aminoacylation activity against Candida albicans prolyl-tRNA synthetase.

For test [2], the target named is Bifunctional glutamate/proline--tRNA ligase (Homo sapiens, UniProt P07814). In words: Aminoacylation activity against human prolyl-tRNA synthetase.
A short description of test [3]: Minimum inhibitory concentration (MIC) against Candida albicans (has cellular activity). Format: functional.
Another test concerns Candida albicans. As to the kind of experiment: Compound was evaluated for the minimum inhibitory concentration (MIC) against Candida albicans (no cell activity). Format: functional.
Test [4] can be described thus: Competitive inhibition against Candida albicans prolyl-tRNA synthetase (Ca. ProRS) with respect to ATP.
A short description of test [5]: Non-competitive inhibition against Candida albicans prolyl-tRNA synthetase (Ca. ProRS) with respect to proline.

Bifunctional glutamate/proline--tRNA ligase, sequence (P07814 whole entry): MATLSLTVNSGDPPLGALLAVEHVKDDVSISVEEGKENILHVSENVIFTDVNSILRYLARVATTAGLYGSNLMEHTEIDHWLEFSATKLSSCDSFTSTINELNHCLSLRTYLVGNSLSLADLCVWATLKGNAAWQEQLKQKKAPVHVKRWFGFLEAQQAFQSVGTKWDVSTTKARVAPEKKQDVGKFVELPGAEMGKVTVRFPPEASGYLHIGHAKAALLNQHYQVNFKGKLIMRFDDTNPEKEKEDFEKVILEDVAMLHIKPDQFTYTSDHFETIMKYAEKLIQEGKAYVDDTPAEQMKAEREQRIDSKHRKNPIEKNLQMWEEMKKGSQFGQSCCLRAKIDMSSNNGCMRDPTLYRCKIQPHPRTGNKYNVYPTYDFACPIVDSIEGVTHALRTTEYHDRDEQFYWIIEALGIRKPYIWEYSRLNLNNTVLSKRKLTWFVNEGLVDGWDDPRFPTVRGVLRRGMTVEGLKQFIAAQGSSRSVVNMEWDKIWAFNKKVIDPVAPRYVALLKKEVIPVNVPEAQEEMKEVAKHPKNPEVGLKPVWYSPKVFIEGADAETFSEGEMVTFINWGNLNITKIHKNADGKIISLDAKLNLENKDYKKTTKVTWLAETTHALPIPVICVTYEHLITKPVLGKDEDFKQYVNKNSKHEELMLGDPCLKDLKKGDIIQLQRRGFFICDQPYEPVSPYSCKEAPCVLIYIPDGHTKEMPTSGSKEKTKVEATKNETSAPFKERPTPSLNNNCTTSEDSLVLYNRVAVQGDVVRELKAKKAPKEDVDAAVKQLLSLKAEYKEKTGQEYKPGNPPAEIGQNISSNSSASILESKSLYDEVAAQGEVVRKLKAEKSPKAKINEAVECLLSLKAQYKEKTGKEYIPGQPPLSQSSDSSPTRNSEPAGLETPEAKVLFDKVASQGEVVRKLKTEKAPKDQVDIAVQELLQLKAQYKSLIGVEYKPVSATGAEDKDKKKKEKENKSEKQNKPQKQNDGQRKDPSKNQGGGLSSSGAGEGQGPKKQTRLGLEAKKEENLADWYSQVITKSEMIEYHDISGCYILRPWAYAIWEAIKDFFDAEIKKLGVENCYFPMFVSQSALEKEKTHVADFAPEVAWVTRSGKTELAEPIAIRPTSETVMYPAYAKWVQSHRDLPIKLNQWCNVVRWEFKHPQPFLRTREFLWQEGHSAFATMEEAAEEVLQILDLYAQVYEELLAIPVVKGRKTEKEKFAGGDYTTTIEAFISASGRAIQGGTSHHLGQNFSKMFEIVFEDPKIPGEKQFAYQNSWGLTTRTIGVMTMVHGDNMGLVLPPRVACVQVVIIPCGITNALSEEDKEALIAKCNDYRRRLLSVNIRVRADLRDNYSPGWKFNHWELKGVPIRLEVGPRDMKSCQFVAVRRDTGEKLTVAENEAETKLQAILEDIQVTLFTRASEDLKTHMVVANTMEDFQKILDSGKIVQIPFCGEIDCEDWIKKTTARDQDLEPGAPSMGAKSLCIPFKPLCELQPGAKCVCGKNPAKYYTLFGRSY

The IC50 is the concentration needed to halve the response being measured. A lower IC50 goes with inhibition by little substance. For the molecule `COc1ccc(-c2cc(C(=O)O)c3ccccc3n2)cc1`, the IC50 in test [1] and in test [2] was > 100 µM in each case.

As for `O=C(O)/C=C/c1ccc2nc(-c3ccc(Br)cc3)cc(C(=O)O)c2c1`, the concentration for half-maximal inhibition (IC50) is 1.3 µM in test [1] and 80 µM in test [2].

For `Cc1cc(Cl)cc2nc(-c3ccc(Br)cc3)cc(C(=O)O)c12`, the IC50 is 1.5 µM in test [1] and > 100 µM in test [2].

For `O=C(O)c1cc(-c2ccc(Br)cc2)nc2c(C(F)(F)F)cc(Br)cc12`, the IC50 in test [1] came to 0.22 µM; in test [2], 56 µM.

As to `O=C(O)c1cc(-c2ccncc2)nc2ccccc12`, the IC50 in test [1] and in test [2] was > 100 µM each time.

As usually defined, the MIC is the lowest concentration found to suppress growth. Low values mean greater potency, high ones weaker potency. For the molecule `Cc1c(Br)ccc2c(C(=O)O)cc(-c3ccc(Br)cc3)nc12`, the IC50 in test [1] was 0.15 µM; in test [2], 70 µM. This molecule returned an MIC in test [3] of 25 µg/mL (≈ 59.4 µM).

As for `Cc1c(F)ccc2c(C(=O)O)cc(-c3ccc(Br)cc3)nc12`, the IC50 in test [1] turned out to be 0.12 µM; in test [2] it was 60 µM.

Turning to `O=C(O)c1cc(-c2ccc(Br)cc2)nc2ccc(Br)cc12`, the IC50 in test [1] is 0.025 µM; in test [2], > 20 µM.

Molecule `Cc1cc(Cl)cc2c(COS(N)(=O)=O)cc(-c3ccc(Br)cc3)nc12` came in with an IC50 in test [1] of 2.4 µM. That is a single-digit micromolar value.

Regarding `O=C(O)c1cc(-c2ccc(Br)cc2)nc2cc(Cl)cc(Cl)c12`, the IC50 was 0.14 µM in test [1] and > 100 µM in test [2].

By Ki is commonly meant a measure of affinity in units of concentration, obtained from inhibition or displacement. `Cc1cc(Cl)cc2c(C(=O)O)cc(-c3ccc(Br)cc3)nc12`: in the test with Candida albicans, the MIC was > 100 µg/mL. The IC50 in test [1] was 0.005 µM; in test [2] it was > 20 µM. The values for the Ki in test [4] and in test [5] were 0.0051 µM and 0.015 µM, respectively.

In the case of `O=C(O)c1cc(-c2ccc(C(F)(F)F)cc2)nc2ccccc12`, the IC50 in test [1] and in test [2] was > 100 µM throughout.

As to `O=C(O)c1cc(-c2ccc3ccccc3c2)nc2ccccc12`, the IC50 in test [1] was 3.6 µM; in test [2] it was > 100 µM.

`O=C(O)c1cc(-c2ccc(Cl)c(Cl)c2)nc2ccccc12`: the figures for the IC50 in test [1] and in test [2] were 19 µM and > 100 µM, respectively.

Regarding `Nc1ccc2nc(-c3ccc(Br)cc3)cc(C(=O)O)c2c1`, the IC50 in test [1] worked out at 3.3 µM; in test [2] it was 95 µM.

Consider `O=C(O)c1cc(-c2ccc(Br)cc2)nc2c(CO)cc(Cl)cc12`, for which the IC50 in test [1] is 1.5 µM; in test [2] it was > 100 µM.

For the molecule `Cc1cc(Cl)cc2c(C(=O)OCc3ccc(Cl)c(Cl)c3)cc(-c3ccc(Br)cc3)nc12`, the IC50 in test [1] was 0.02 µM; in test [2], > 100 µM.

Regarding `O=C(O)c1cc(-c2ccc(Br)cc2)nc2ccc(S(=O)(=O)O)cc12`, the concentration for half-maximal inhibition (IC50) was 15 µM in test [1] and > 100 µM in test [2].

Consider `COC(=O)C(Cc1ccccc1)NC(=O)c1cc(-c2ccc(Br)cc2)nc2c(C)cc(Cl)cc12` (configuration not stated), for which the IC50 in test [1] was 5.7 µM; in test [2], > 100 µM.

For `O=C(O)c1cc(-c2ccccc2)nc2ccccc12` [CINCHOPHEN], the IC50 in test [1] and in test [2] was > 100 µM in each case.

Regarding `O=C(O)c1cc(-c2ccc(Cl)s2)nc2ccccc12`, the IC50 in test [1] is 32 µM; in test [2] it was > 100 µM.

Consider `Cc1cc(Cl)cc2c(C(=O)OCc3ccc(-c4ccccc4)cc3)cc(-c3ccc(Br)cc3)nc12`, for which the IC50 was 8.8 µM in test [1] and > 100 µM in test [2].

Regarding `Cc1cc(Cl)c2nc(-c3ccc(Br)cc3)cc(C(=O)O)c2c1`, the IC50 is 0.025 µM in test [1] and > 20 µM in test [2].

In the case of `O=C(O)c1cc(-c2ccc(Br)cc2)nc2ccc(-c3ccc(O)cc3)cc12`, the figures for the IC50 in test [1] and in test [2] were 0.35 µM and 35 µM, respectively.

As for `Cc1cc(Cl)cc2c(-c3nn[nH]n3)cc(-c3ccc(Br)cc3)nc12`, the half-inhibitory concentration (IC50) in test [1] was 0.03 µM; in test [2], > 100 µM.

In the case of `O=C(O)c1cc(-c2ccc(Br)cc2)nc2ccc(I)cc12`, the figures for the half-inhibitory concentration (IC50) in test [1] and in test [2] were 0.019 µM and > 100 µM, respectively.

`Cc1cc(Cl)cc2c(C(=O)OCc3ccco3)cc(-c3ccc(Br)cc3)nc12`: the figures for the IC50 in test [1] and in test [2] were 0.07 µM and > 100 µM, respectively.

As for `O=C(O)c1cc(-c2ccco2)nc2ccccc12`, the IC50 in test [1] and in test [2] was > 100 µM in each case.

For the molecule `O=C(O)c1cc(-c2ccc(Br)cc2)nc2ccc(OC(F)(F)F)cc12`, the IC50 in test [1] is 0.053 µM; in test [2], > 100 µM.

For the molecule `Cc1cc(C)c2nc(-c3ccc(Br)cc3)cc(C(=O)O)c2c1`, the half-maximal inhibitory concentration (IC50) is 25 µM in test [1] and > 100 µM in test [2].

On to `O=C(O)c1cc(-c2ccc(Br)cc2)nc2ccccc12`, for which the IC50 in test [1] was 0.5 µM; in test [2] it was > 100 µM.

Regarding `O=C(O)c1cc(-c2ccc(Br)cc2)nc2ccc(Cl)cc12`, the IC50 in test [1] was 0.026 µM; in test [2] it was > 20 µM.
